Where “and” joins values, the source holds several entries; their conditions need not be identical. Equal values may be shown once. Residues, ends and D or L forms follow the SMILES beside them. No end group written: not given here.
Experiments:
[1] = target: RTA depurination activity on yeast ribosomes (Ricinus communis, UniProt P02879); test: biochemical; format: biochemical; details: for IC50: Yeast Ribosome IC50
[2] = target: RTA depurination activity on rat liver ribosomes (Ricinus communis, UniProt P02879); test: biochemical; format: biochemical
[3] = target: RTA–yeast ribosome interaction (Ricinus communis, UniProt P02879); format: binding

Compound: CC(C)C[C@H](NC(=O)CN)C(=O)N[C@@H](Cc1ccccc1)C(=O)N[C@@H](CC(=O)O)C(=O)O [P4, G112LFD115] (H-GLFD-OH)
- IC50 [1]: 102 ± 45 µM

Compound: DDDMGFGLFD [P10]
- IC50 [2]: 83 ± 18 µM
- IC50 [1]: 7.9 ± 1.7 µM

Compound: DDMGFGLFD [P9]
- IC50 [2]: 142 ± 61 µM
- IC50 [1]: 15 ± 1.5 µM

Compound: DMGFGLFD [P8, D108MGFGLFD115]
- IC50 [2]: 267 ± 80 µM
- IC50 [1]: 23 ± 4.4 µM

Compound: FGLFD [P5, F111GLFD115]
- IC50 [1]: 121 ± 44 µM

Compound: GFGLFD [P6, G110FGLFD115]
- IC50 [1]: 63 ± 13 µM
- inhibition of ribosome binding to RTA [3]: < 100%

Compound: MGFGLFD [P7, M109GFGLFD115]
- IC50 [1]: 34 ± 9.5 µM

Compound: SDDDMGFGLFD [P11]
- IC50 [2]: 30.8 ± 6.3 µM
- Imax (maximal inhibition), rat ribosome [2]: 90% and 89.4 ± 4.2%
- Imax (maximal inhibition), yeast ribosome [1]: 90% and 89.7 ± 3.0%
- IC50 [1]: 5 µM and 4.7 µM

Reference: PMC6162817 (Toxins, 2018)
